In PubChem BioAssay AID1963872 (Molecular Pharmacology Branch, DTP, NCI, 2024):

Tested on: KRAS patient-derived spheroids with HUVEC/MSC, viability
Assay: Anticancer human tumor 519858-162-T-J1-PDC patient-derived colon adenocarcinoma cell line growth inhibition [KRAS2]
Settings: for IC50: curve of first compound; for viability, T/C: stronger effect = lower value
How it was run: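 KRAS-mutant tumor cells were grown as spheroids with HUVEC endothelial cells and human MSCs as stroma. Targeted agents were tested alone and with KRAS pathway inhibitors. Doses started at or near clinical Cmax, or 10 microM, descending half-log.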

[1] = second compound 0.0316 µM, first compound 0.0316 µM
[2] = second compound 0.0316 µM, first compound 0.1 µM
[3] = second compound 0.0316 µM, first compound 0.316 µM
[4] = second compound 0.0316 µM, first compound 1 µM
[5] = second compound 0.0316 µM, first compound 3.16 µM
[6] = second compound 0.0316 µM, first compound 10 µM
[7] = second compound 0.1 µM, first compound 0.0316 µM
[8] = second compound 0.1 µM, first compound 0.1 µM
[9] = second compound 0.1 µM, first compound 0.316 µM
[10] = second compound 0.1 µM, first compound 1 µM
[11] = second compound 0.1 µM, first compound 3.16 µM
[12] = second compound 0.1 µM, first compound 10 µM
[13] = second compound 0.316 µM, first compound 0.0316 µM
[14] = second compound 0.316 µM, first compound 0.1 µM
[15] = second compound 0.316 µM, first compound 0.316 µM
[16] = second compound 0.316 µM, first compound 1 µM
[17] = second compound 0.316 µM, first compound 3.16 µM
[18] = second compound 0.316 µM, first compound 10 µM
[19] = second compound 1 µM, first compound 0.0316 µM
[20] = second compound 1 µM, first compound 0.1 µM
[21] = second compound 1 µM, first compound 0.316 µM
[22] = second compound 1 µM, first compound 1 µM
[23] = second compound 1 µM, first compound 3.16 µM
[24] = second compound 1 µM, first compound 10 µM
[25] = second compound 3.16 µM, first compound 0.0316 µM
[26] = second compound 3.16 µM, first compound 0.1 µM
[27] = second compound 3.16 µM, first compound 0.316 µM
[28] = second compound 3.16 µM, first compound 1 µM
[29] = second compound 3.16 µM, first compound 3.16 µM
[30] = second compound 3.16 µM, first compound 10 µM
[31] = second compound 0.1 µM, first compound 0.01 µM
[32] = second compound 0.316 µM, first compound 0.01 µM
[33] = second compound 1 µM, first compound 0.01 µM
[34] = second compound 3.16 µM, first compound 0.01 µM
[35] = second compound 10 µM, first compound 0.01 µM
[36] = second compound 10 µM, first compound 0.0316 µM
[37] = second compound 10 µM, first compound 0.1 µM
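Further: compound exposure lasted seven days before readout.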
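Wherever viability, T/C is given: 100% = DMSO vehicle control viability.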

With CC1OCC2(CCN(c3cnc(Sc4ccnc(N)c4Cl)c(N)n3)CC2)C1N (stereo not given) + C=CC(=O)N1CCN(c2nc(OCC3CCCN3C)nc3c2CCN(c2cccc4cccc(C)c24)C3)CC1CC#N the IC50 (second compound 0.0316 µM) was greater than 10000 nM, the IC50 (second compound 0.1 µM) was 2280 nM and the IC50 (second compound 0.316 µM) was greater than 10000 nM. For the same compound, the IC50 (second compound 1 µM) was 5700 nM, the IC50 (second compound 3.16 µM) was less than 31.6 nM and the viability, T/C [1] was 90.8%. It also gave a viability, T/C [2] of 84.2%, a viability, T/C [3] of 96.5% and a viability, T/C [4] of 85.4%. For the same compound, the viability, T/C [5] was 64.9%, the viability, T/C [6] was 53.9% and the viability, T/C [7] was 82.5%. For the same compound, the viability, T/C [8] was 75.8%, the viability, T/C [9] was 75.7% and the viability, T/C [10] was 55.9%. The viability, T/C [11] was 46.8%, the viability, T/C [12] was 48.1% and the viability, T/C [13] was 94%. It also gave a viability, T/C [14] of 69%, a viability, T/C [15] of 58% and a viability, T/C [16] of 52.8%. It also gave a viability, T/C [17] of 67.1%, a viability, T/C [18] of 62.1% and a viability, T/C [19] of 87.3%. For the same compound, the viability, T/C [20] was 81.1%, the viability, T/C [21] was 62.2% and the viability, T/C [22] was 82.4%. It also gave a viability, T/C [23] of 54.9%, a viability, T/C [24] of 41.9% and a viability, T/C [25] of 33.9%. It also gave a viability, T/C [26] of 42.9%, a viability, T/C [27] of 42.3% and a viability, T/C [28] of 52.7%. For the same compound, the viability, T/C [29] was 25.5% and the viability, T/C [30] was 30.1%.
Cn1nccc1Nc1nccc(-c2cc3c(s2)C(C)(C)N(CCN2CCOCC2)C3=O)n1 + C=CC(=O)N1CCN(c2nc(OCC3CCCN3C)nc3c2CCN(c2cccc4cccc(C)c24)C3)CC1CC#N showed an IC50 (second compound 0.0316 µM) of 4030 nM, an IC50 (second compound 0.1 µM) of 3030 nM and an IC50 (second compound 0.316 µM) of 1690 nM. The IC50 (second compound 1 µM) was 693 nM, the IC50 (second compound 3.16 µM) was less than 31.6 nM and the viability, T/C [1] was 78.1%. For the same compound, the viability, T/C [2] was 75.3%, the viability, T/C [3] was 82.8% and the viability, T/C [4] was 68.4%. For the same compound, the viability, T/C [5] was 56.6%, the viability, T/C [6] was 28.1% and the viability, T/C [7] was 76.3%. For the same compound, the viability, T/C [8] was 87.3%, the viability, T/C [9] was 94.7% and the viability, T/C [10] was 60.1%. It also gave a viability, T/C [11] of 53.7%, a viability, T/C [12] of 25.3% and a viability, T/C [13] of 77.7%. The viability, T/C [14] was 74.7%, the viability, T/C [15] was 72% and the viability, T/C [16] was 53.3%. It also gave a viability, T/C [17] of 44.8%, a viability, T/C [18] of 32.8% and a viability, T/C [19] of 71.6%. For the same compound, the viability, T/C [20] was 57.1%, the viability, T/C [21] was 54% and the viability, T/C [22] was 53%. It also gave a viability, T/C [23] of 36.7%, a viability, T/C [24] of 27.1% and a viability, T/C [25] of 47.6%. It also gave a viability, T/C [26] of 54.6%, a viability, T/C [27] of 39.8% and a viability, T/C [28] of 30%. For the same compound, the viability, T/C [29] was 41.5% and the viability, T/C [30] was 17.6%.
Compound CC(=O)OC12COC1CC(O)C1(C)C(=O)C(O)C3=C(C)C(OC(=O)C(O)C(NC(=O)OC(C)(C)C)c4ccccc4)CC(O)(C(OC(=O)c4ccccc4)C21)C3(C)C (stereo not given) + CC1OCC2(CCN(c3cnc(Sc4ccnc(N)c4Cl)c(N)n3)CC2)C1N has an IC50 (second compound 0.1 µM) greater than 3160 nM, an IC50 (second compound 0.316 µM) greater than 3160 nM and an IC50 (second compound 1 µM) greater than 3160 nM. It also gave an IC50 (second compound 3.16 µM) of 261 nM, an IC50 (second compound 10 µM) of 205 nM and a viability, T/C [31] of 73.8%. For the same compound, the viability, T/C [7] was 71.1%, the viability, T/C [8] was 89.4% and the viability, T/C [9] was 109%. The viability, T/C [10] was 79.5%, the viability, T/C [11] was 80.7% and the viability, T/C [32] was 79.9%. It also gave a viability, T/C [13] of 84.8%, a viability, T/C [14] of 90.3% and a viability, T/C [15] of 55.5%. For the same compound, the viability, T/C [16] was 63.4%, the viability, T/C [17] was 51.5% and the viability, T/C [33] was 88.9%. The viability, T/C [19] was 71.2%, the viability, T/C [20] was 104% and the viability, T/C [21] was 81.8%. The viability, T/C [22] was 83.3%, the viability, T/C [23] was 101% and the viability, T/C [34] was 59.6%. The viability, T/C [25] was 77.2%, the viability, T/C [26] was 64.7% and the viability, T/C [27] was 46.9%. For the same compound, the viability, T/C [28] was 28.5%, the viability, T/C [29] was 36.3% and the viability, T/C [35] was 74.3%. The viability, T/C [36] was 79.8%, the viability, T/C [37] was 58.8% and the viability, T/C (second compound 10 µM, first compound 0.316 µM) was 36.1%. The viability, T/C (second compound 10 µM, first compound 1 µM) was 50.6% and the viability, T/C (second compound 10 µM, first compound 3.16 µM) was 47.4%.
In the case of CN(C)C/C=C/C(=O)Nc1cc2c(Nc3ccc(F)c(Cl)c3)ncnc2cc1O[C@H]1CCOC1 + CC1OCC2(CCN(c3cnc(Sc4ccnc(N)c4Cl)c(N)n3)CC2)C1N, the IC50 (second compound 0.1 µM) is reported as greater than 100 nM, the IC50 (second compound 0.316 µM) is reported as 19.7 nM and the IC50 (second compound 1 µM) is reported as greater than 100 nM. It also gave an IC50 (second compound 3.16 µM) of 4.46 nM, an IC50 (second compound 10 µM) of 58.2 nM and a viability, T/C (second compound 0.1 µM, first compound 0.000316 µM) of 76.6%. It also gave a viability, T/C (second compound 0.1 µM, first compound 0.001 µM) of 77.2%, a viability, T/C (second compound 0.1 µM, first compound 0.00316 µM) of 68% and a viability, T/C [31] of 93.6%. It also gave a viability, T/C [7] of 70.3%, a viability, T/C [8] of 64.3% and a viability, T/C (second compound 0.316 µM, first compound 0.000316 µM) of 78.1%. The viability, T/C (second compound 0.316 µM, first compound 0.001 µM) was 75%, the viability, T/C (second compound 0.316 µM, first compound 0.00316 µM) was 85.8% and the viability, T/C [32] was 53.3%. It also gave a viability, T/C [13] of 55.1%, a viability, T/C [14] of 40.4% and a viability, T/C (second compound 1 µM, first compound 0.000316 µM) of 74.4%. For the same compound, the viability, T/C (second compound 1 µM, first compound 0.001 µM) was 74.1%, the viability, T/C (second compound 1 µM, first compound 0.00316 µM) was 78.8% and the viability, T/C [33] was 71.2%. The viability, T/C [19] was 90.8%, the viability, T/C [20] was 67.4% and the viability, T/C (second compound 3.16 µM, first compound 0.000316 µM) was 53.6%. It also gave a viability, T/C (second compound 3.16 µM, first compound 0.001 µM) of 55.6%, a viability, T/C (second compound 3.16 µM, first compound 0.00316 µM) of 38.9% and a viability, T/C [34] of 59.3%. The viability, T/C [25] was 39.4%, the viability, T/C [26] was 36.8% and the viability, T/C (second compound 10 µM, first compound 0.000316 µM) was 80%. The viability, T/C (second compound 10 µM, first compound 0.001 µM) was 81.7%, the viability, T/C (second compound 10 µM, first compound 0.00316 µM) was 71.3% and the viability, T/C [35] was 72.9%. The viability, T/C [36] was 53.3% and the viability, T/C [37] was 46.4%.
